US12109222B2, “Methods and compositions for treating mucositis” (Tosk, Inc., priority 2018, dated 2024)
Entries after “also recorded” stand apart in the source; their conditions may differ.

Columns and labels:
[1] = test system: weight loss induced by 5-FU; conditions: 400 mg/kg 5-FU ip Day 0 plus 5333 mg/kg sc TK-90 by osmotic pump over 24 hours; compared to 5-FU alone
Protocol: The chemotherapeutic challenge was weight loss induced by 5-FU (FIG. 2). […] The aim of this study was to explore whether 5-FU combined with a uridine phosphorylase inhibitor provides protection from weight loss, a principal toxicity of 5-FU.
Groups of CD-1 female mice entrained to light:dark (12:12 hours), and given food and water ad libitum, were used for this experiment. The mean weight of the mice at the start of the experiment was approximately 20 g. Control mice were injected ip with sterile PBS, the vehicle control (Group 1). Group 2 and Group 3 mice were injected, ip, with 400 mg/kg 5-FU (Sigma) dissolved in PBS. A 24-hour osmotic pump (ALZET® micro-osmotic pump, Alza Co) was implanted into Group 3 animals. The pumps were loaded with 200 μL (2001D osmotic pump) of a 500 mg/mL solution of TK-90 (FIG. 2) in PBS. The TK-90 dose over the 24-hour infusion was 5333 mg/kg. The four animals were used for Group 1 and 8 animals were used for Groups 2 and 3.
For the implantation of the osmotic pump, animals were anesthetized with 100 mg/kg ketamine prior to pump implantation. […]
Animals were sacrificed on Day 5 by cervical dislocation and properly disposed. Animal weights were recorded daily for 6 days and the percent difference between Day 0 and Day 5 at termination was calculated.

plasma citrulline = test: Plasma citrulline after 5-FU (LC/MS/MS-Isotope assay), surrogate marker for mucositis; format: in vivo, C57BL/6 female mice; conditions: Day 3
Protocol: The chemotherapeutic challenge was diminished plasma citrulline by 5-FU treatment. The aim of this study was to explore whether a uridine phosphorylase inhibitor could prevent lowered plasma citrulline induced by 5-FU.
TK-90 solution was prepared at a concentration of 500 mg/mL in sterile PBS. Eight animals were used for Groups 1,2 and 3.
Osmotic pumps were placed inside the subcutaneous tunnel. Incision was sealed with Vetbond tissue adhesive and wound clips.
Blood collections were done to animals anesthetized with ketamine (ip 100 mg/kg). Whole blood (˜0.8 mL) was drawn through the retro-orbital sinus using a heparin coated micro-hematocrit tube and collected into a heparin microtainer tube. Blood samples were transferred into fresh 1.5 mL microcentrifuge tubes and centrifuged for 5 minutes at 10,000×g using an Eppendorf Minispin Plus stored in a 4° C. refrigerator. Following collection of the plasma samples, the animals were sacrificed on Day 3 by cervical dislocation and properly disposed. […]
Thawed plasma samples from the study were analyzed for citrulline using a published LC/MS/MS-Isotope assay. (Jones et al., Development and validation of a LC-MS/MS assay for quantitation of plasma citrulline for application to animal models of the acute radiation syndrome across multiple species,” Anal Bioanal Chem. (2014) 406(19):4663-75).

5-FU induced weight loss = test: Protection from 5-FU induced weight loss by uridine alone or uridine plus TK-90; format: in vivo, CD-1 mice
Description: Weight loss is one of the cardinal features of mucositis. […] Controls include PBS alone at times mimicking the time for 5-FU and combined uridine and TK-90 treatments. There were n=6 animals in all groups.

uridine = test: Systemic uridine after administration of TK-90; format: in vivo
[2] = test system: panel of cytokines and related biochemicals; test: Plasma cytokine changes induced by 5-FU, multiplex ELISA on plasma of Experiment III; format: in vivo, C57BL/6 female mice; conditions: Day 3; 200 mg/kg 5-FU ip plus 6000 mg/kg TK-90 osmotic pump over 24 hours; vs 5-FU alone
Protocol: The chemotherapeutic challenge was cytokine changes induced by 5-FU treatment.
Plasma samples from Experiment III were analyzed for a panel of cytokines and related biochemicals by multiplex ELISA. […] IL-1B, TNF-α, and IL-6 are pro-inflammatory cytokines known to be elevated with mucositis. (Logan et al., “The role of pro-inflammatory cytokines in cancer treatment-induced alimentary tract mucositis: pathobiology, animal models and cytotoxic drugs,” Cancer Treat Rev. (2007) 33(5):448-60; Ong et al., “Pro-inflammatory cytokines play a key role in the development of radiotherapy-induced gastrointestinal mucositis,” Radiat Oncol. (2010) (16) 5:22). TK-90 reverses elevation of all three of these cytokines (FIGS. 5, 6 and 7). IL-2 is a pleiotropic cytokine that drives growth and activation of inflammatory cells such as T-cells, NK cells, etc. IL-9 and IL-15 signal through IL-2. TK-90 reverse the 5-FU induced elevation of all three of these cytokines (FIGS. 8, 9, and 10). IL-12 is a cytokine linked to generation of an immune response. Another cytokine associated with generation of an immune response is IL-5. TK-90 reverse the 5-FU induced elevation of IL-12 and IL5 (FIGS. 11, 12 and 13). IL-10 is a cytokine that plays a central role in limiting host immune response. TK-90 reverses the elevation of IL-10 induced by the 5-FU treatment possibly allowing an immune response to proceed to potentially clear damaged tissue (FIG. 14). GM-CSF and M-CSF both stimulate cell mediators of inflammation. TK-90 reverse the 5-FU induced elevation of both GM-CSF and […] (FIGS. 15 and 16). MIP-2, and KC are chemokines that function much like GM-CSF, and M-CSF to stimulate cell mediators of inflammation TK-90 reverse the 5-FU induced elevation of the chemokines (FIGS. 17 and 18). 5-FU decreases eotaxin, a chemokine that recruits immune-related mediators like eosinophils into inflammatory sites (FIG. 19). TK-90 reverses this decrease.

[3] = Side effects of TK-90 (clinical trials); conditions: in vivo
[4] = patients who receive 5-FU for their disease; cited from earlier work
[5] = man and animals; cited from earlier work
[6] = cited from earlier work

Cc1cn2c(nc1=O)O[C@H]1[C@H](O)[C@@H](CO)O[C@H]12 [TK-90]
percent weight change on Day 5 versus Day 0 [1]: protected from the weight loss | plasma citrulline concentration (plasma citrulline; 200 mg/kg 5-FU ip plus 6000 mg/kg TK-90 by osmotic pump over 24 hours starting 4 hours post 5-FU, compared to 5-FU alone): reverses the decrease in plasma citrulline; also recorded: robust, statistically significant rebound in plasma citrulline | percent change in weight Day 5 versus Day 0 (5-FU induced weight loss; 80 mg/kg 5-FU qdx5 ip with 750 mg/kg uridine and 120 mg/kg TK-90 bid, compared to 5-FU alone): protected from the weight loss | systemic uridine (uridine): increases systemic uridine | plasma GM-CSF [2]: highly significantly different; also recorded: reverses the increase in plasma GM-CSF | plasma IL-1β [2]: reverses the increase in plasma IL-1β | plasma IL-2 [2]: reverses the increase in plasma IL-2 | plasma IL-6 [2]: reverses the increase in plasma IL-6 | plasma IL-9 [2]: highly significantly different; also recorded: reverses the increase in plasma IL-9 | plasma IL-10 [2]: highly significantly different; also recorded: reverses the increase in plasma IL-10 | plasma IL-12 (P40) [2]: highly significantly different; also recorded: reverses the increase in plasma IL-12 (P40) | plasma IL-12 (P70) [2]: highly significantly different; also recorded: reverses the increase in plasma IL-12 (P70) | plasma IL-15 [2]: highly significantly different; also recorded: reverses the increase in plasma IL-15 | plasma KC (keratinocytes-derived chemokine) [2]: significantly different; also recorded: reverses the increase in plasma KC | plasma M-CSF [2]: reverses the increase in plasma M-CSF | plasma MIP-2 [2]: reverses the increase in plasma MIP-2 | plasma TNF-α [2]: reverses the increase in plasma TNF-α | plasma eotaxin [2]: reverses the decrease in plasma eotaxin | side effects [3]: no known side effects

O=c1[nH]cc(F)c(=O)[nH]1 [Compound 5-FU, 5-flurouracil]
plasma citrulline concentration (plasma citrulline; 200 mg/kg 5-FU ip alone, compared to PBS vehicle control): significant reduction in citrulline | percent change in weight Day 5 versus Day 0 (5-FU induced weight loss; 80 mg/kg 5-FU qdx5 ip alone, compared to PBS vehicle control): robust weight loss | patients who develop mucositis [4]: Approximately 80%

O=c1ccn([C@@H]2O[C@H](CO)[C@@H](O)[C@H]2O)c(=O)[nH]1 [uridine]
half-life of administered uridine [5]: ~3 min | toxicity of continuous infusions of high-dose uridine ([6]; continuous infusion): high fever, cellulitis, and superior vena cava syndrome | toxicity of orally administered uridine ([6]; oral, high-dose, clinical studies): considerable GI dysfunction; also recorded: severe patient diarrhea, phlebitis and pyrogenic reactions | percent change in weight Day 5 versus Day 0 (5-FU induced weight loss; 80 mg/kg 5-FU qdx5 ip with 750 mg/kg uridine bid, compared to 5-FU alone): statistically significant but much less
